Source: patent US20050164929A1, “Methods of preventing and treating inflammatory bowel disease” (LUPINE LOGIC, INC., priority 2000, published 2005)

Experiments:
HUVECS [1] = experiment: Tube formation; format: cell-based, human; conditions: HUVEC
NIH 3T3 cells = experiment: Growth assay (cell count); format: cell-based, mouse; conditions: 1 μg, 48 hours
Description: FIG. 20. CG53135 stimulates Growth of NIH 3T3 Fibroblasts. Duplicate wells of serum starved NIH 3T3 cells were treated for […] with purified CG53135-01 (1 ug) or vehicle control. Cell counts for each well were determined in duplicate. Y— axis identifies cell number, which is the average of 4 cell counts (treatment duplicates×duplicate counts) and standard error (SE).
Growth Assay: growth activity was obtained by measuring cell number following treatment of cultured cells with a given agent for a specified period of time. In general, cells grown to ˜20% confluency in 6-well dishes were treated with basal medium supplemented with CG53135 or control, incubated for several days, trypsinized and counted using a Coulter Z1 Particle Counter.
To determine if recombinant CG53135-01 sustained cell growth, NIH 3T3 cells were cultured with 1 μg CG53135-01 or control for 48 hours and then counted (FIG. 20). CG53135 induced an approximately 2-fold increase in cell number relative to control in this assay.

[2] = system: NIH 3T3 murine embryonic lung fibroblasts; experiment: BrdU incorporation (Studies L-117.01/02); format: cell-based, mouse; conditions: NIH 3T3, BrdU
Description: FIG. 19. […] Serum starved NIH 3T3 cells were treated with purified CG53135-01 (CG53135 in figure), 10% serum or vehicle only (control). DNA synthesis was measured in triplicate for each sample, using a BrdU incorporation assay. Data points represent average BrdU incorporation and bars represent standard error (SE).
(§1) Heterologous Protein Expression: CG53135-01 (batch 4A and 6) was used in these experiments. Protein was expressed using Escherichia coli (E. coli), BL21 (Novagen, Madison, Wis.), transformed with full-length CG53135-01 in a pETMY-hFGF20X/BL21 expression vector. Cells were harvested and disrupted, and then the soluble protein fraction was clarified by filtration and passed through a metal chelation column. The final protein fraction was dialyzed against phosphate buffered saline (PBS) plus 1 M L-arginine. Protein samples were stored at −70° C.
BrdU Incorporation: proliferative activity was measured by treatment of serum-starved cultured cells with a given agent and measurement of BrdU incorporation during DNA synthesis. Cells were cultured in respective manufacturer recommended basal growth medium supplemented with 10% fetal bovine serum or 10% calf serum as per manufacturer recommendations. Cells were grown in 96-well plates to confluence at 37° C. in 10% CO2/air (to subconfluence at 5% CO2 for dedifferentiated chondrocytes and NHOst). […]

endothelial cells = experiment: Proliferation summary for variants; format: cell-based; conditions: in vitro
Description: (§2) Experiments were performed to evaluate the proliferative response of representative cell types to CG53135, e.g., a full-length tagged variant (CG53135-01), a deletion variant (CG53135-02), and a full-length codon-optimized untagged variant (CG53135-05).
(§3) CG53135-02 (batch 1 and 13) was also used in these experiments. Protein was expressed in E. coli, BLR (DE3) (Novagen), transformed with the deletion variant CG53135-02 inserted into a pET24a vector (Novagen). A research cell bank (RCB) was produced and cell paste containing CG53135-02 was produced by fermentation of cells originating from the RCB. Cell membranes were disrupted by high-pressure homogenization, and lysate was clarified by centrifugation. CG53135-02 was purified by ion exchange chromatography. The final protein fraction was dialyzed against the formulation buffer (100 mM citrate, 1 mM ethylenediaminetetraacetic acid (EDTA), and 1 M L-arginine).
(§4) CG53135-05, DEV10, which were also used in these experiments, was prepared by Cambrex Biosciences (Hopkinton, Mass.) according to Process 1 as described in Section 6.18.1, infra.
(§5) BrdU Incorporation: proliferative activity was measured by treatment of serum-starved cultured cells with a given agent and measurement of BrdU incorporation during DNA synthesis. Cells were cultured in respective manufacturer recommended basal growth medium supplemented with 10% fetal bovine serum or 10% calf serum as per manufacturer recommendations. Cells were grown in 96-well plates to confluence at 37° C. in 10% CO2/air (to subconfluence at 5% CO2 for dedifferentiated chondrocytes and NHOst). Cells were then starved in respective basal growth medium for 24-72 hours. CG53135 protein purified from E. coli or pCEP4/Sec or pCEP4/Sec-FGF 20× enriched conditioned medium was added (10 μL/100 μL of culture) for 18 hours. BrdU (10 μM final concentration) was then added and incubated with the cells for 5 hours. BrdU incorporation was assayed according to the manufacturer's specifications (Roche Molecular Biochemicals, Indianapolis, Ind.).
(§6) The above described experiments were also performed using CG53135-02 and CG53135-05 protein products, and the results are summarized in the Conclusion section below.

[3] = system: mesenchymal and epithelial cells; experiment: Proliferation summary for variants; format: cell-based; conditions: in vitro
Description: as §2, §3, §4, §5, §6

[4] = system: primary human osteoblasts (NHOst); experiment: BrdU incorporation (Studies L-117.01/02); format: cell-based
Text: as §1, §5

[5] = system: Jurkat, an acute T-lymphoblastic leukemia cell line; experiment: BrdU incorporation (Studies L-117.01/02); format: cell-based
Text: as §1, §5

[6] = system: human pulmonary artery smooth muscle cells; experiment: BrdU incorporation (Studies L-117.01/02); format: cell-based
Text: as §1, §5

[7] = system: human coronary artery smooth muscle cells; experiment: BrdU incorporation (Studies L-117.01/02); format: cell-based
Text: as §1, §5

[8] = system: human aorta smooth muscle cells (HSMC); experiment: BrdU incorporation (Studies L-117.01/02); format: cell-based
Text: as §1, §5

[9] = system: CCD 1106 KERTr human keratinocytes; experiment: BrdU incorporation (Studies L-117.01/02); format: cell-based
Text: as §1, §5

[10] = system: TF-1, an erythroblastic leukemia cell line; experiment: BrdU incorporation (Studies L-117.01/02); format: cell-based
Text: as §1, §5

[11] = system: CCD-1070Sk normal human foreskin fibroblasts; experiment: BrdU incorporation (Studies L-117.01/02); format: cell-based
Text: as §1, §5

[12] = system: rabbit synoviocyte cell line, HIG-82; experiment: BrdU incorporation (Studies L-117.01/02); format: cell-based
Text: as §1, §5

[13] = system: Balb MK mouse keratinocytes; experiment: BrdU incorporation (Studies L-117.01/02); format: cell-based
Text: as §1, §5

[14] = system: mouse skeletal muscle cells; experiment: BrdU incorporation (Studies L-117.01/02); format: cell-based
Text: as §1, §5

HUVECS [15] = experiment: VEGF induced cell migration; format: cell-based, human; conditions: HUVEC
[16] = system: breast epithelial cell line, B5589; experiment: BrdU incorporation (Studies L-117.01/02); format: cell-based, human
Text: as §1
as §5, with “BrdU incorporation was assayed according to the manufacturer's specifications (Roche Molecular Biochemicals, Indianapolis, Ind.).” left out

[17] = system: MG-63 osteosarcoma cell line; experiment: BrdU incorporation (Studies L-117.01/02); format: cell-based, human
Text: as §1
as §5, with “BrdU incorporation was assayed according to the manufacturer's specifications (Roche Molecular Biochemicals, Indianapolis, Ind.).” left out

[18] = system: bovine aortic endothelial cells; experiment: Cell survival and BrdU incorporation in endothelial cells; format: cell-based; conditions: BAEC
Description: as §5
(§7) Effects of CG53135 on Endothelial Cells: protein therapeutic agents may inhibit or promote angiogenesis, the process through which endothelial cells differentiate into capillaries. Because CG53135 belongs to the fibroblast growth factor family, some members of which have angiogenic properties, the antiangiogenic or pro-angiogenic effects of CG53135 on endothelial cell lines were evaluated. The following cell lines were chosen because they are cell types used in understanding angiogenesis in cancer: HUVEC (human umbilical vein endothelial cells), BAEC (bovine aortic endothelial cells), HMVEC-d (human endothelial, dermal capillary). These endothelial cell types undergo morphogenic differentiation and are representative of large vessel (HUVEC, BAEC) as well as capillary endothelial cells (HMVEC-d).

[19] = system: human dermal microvascular endothelial cells; experiment: as above; format: cell-based; conditions: HMVEC-d
Description: as §5, §7

[20] = system: human umbilical vein endothelial cells; experiment: as above; format: cell-based; conditions: HUVEC
Description: as §5, §7

For “CG53135-01: FGF-20 wild type, stop codon removed; SEQ ID NOs 1 and 2; expressed as tagged full-length variant”, the tube formation (HUVECS [1]) was “did not inhibit tube formation”, the “increase in cell number relative to control” value (NIH 3T3 cells) was “approximately 2 fold” and the “half maximal concentration for induction of DNA synthesis” value [2] was roughly 10 ng/mL. For the same substance, the “induction of DNA synthesis” value [2] was “dose-dependent manner”, the “proliferation of endothelial cells” value (endothelial cells) was “not” and the “proliferation of mesenchymal and epithelial cells” value [3] was “induces a proliferative response”. The “induction of DNA synthesis” value [4] was “did not induce any significant increase in DNA synthesis”, the BrdU incorporation response [5] was “did not show any response” and the “induction of DNA synthesis” value [6] was “did not induce any significant increase in DNA synthesis”. The “induction of DNA synthesis” value [7] was “did not induce any significant increase in DNA synthesis”, the “induction of DNA synthesis” value [8] was “did not induce any significant increase in DNA synthesis” and the “induction of DNA synthesis” value [9] was “induced DNA synthesis”. For the same substance, the “effect on DNA synthesis” value [10] was “no stimulatory effect”, the “induction of DNA synthesis” value [11] was “induced DNA synthesis” and the “induction of DNA synthesis” value [12] was “induced DNA synthesis”. The “induction of DNA synthesis” value [13] was “induced DNA synthesis”, the “induction of DNA synthesis” value [14] was “did not induce any significant increase in DNA synthesis” and the “VEGF induced cell migration” value (HUVECS [15]) was “had no effect”. The “induction of DNA synthesis” value [16] was “induced DNA synthesis”, the “induction of DNA synthesis” value [17] was “induced DNA synthesis” and the “cell survival and BrdU incorporation” value [18] was “did not alter cell survival or have stimulatory effects on BrdU incorporation”. For the same substance, the “cell survival and BrdU incorporation” value [19] was “did not alter cell survival or have stimulatory effects on BrdU incorporation” and the “cell survival and BrdU incorporation” value [20] was “did not alter cell survival or have stimulatory effects on BrdU incorporation”.
